Laboratory results taken from the NIST ThermoML archive (doi:10.1021/je050367p).

Legend:
[1] = xn = mol fraction of the nth substance listed; details: 100.8 kPa, Liquid; for viscosity: Capillary tube (Ostwald / Ubbelohde) method
[2] = refractive index (Na D-line) (dimensionless); xn = mol fraction of the nth substance listed; details: 100.8 kPa, Liquid, Standard Abbe refractometry

CC(C)CC(C)(C)C [2,2,4-trimethylpentane] + CCO
Details	mass density, 288.15 K [kg/m3]	mass density, 298.15 K [kg/m3]	mass density, 308.15 K [kg/m3]	refractive index, 288.15 K	refractive index, 298.15 K	refractive index, 308.15 K	viscosity, 288.15 K [mPa·s]	viscosity, 298.15 K [mPa·s]	viscosity, 308.15 K [mPa·s]
[1], x2 = 0	695.95	687.74	679.41	–	–	–	0.537	0.48	0.432
[1], x2 = 0.0502	697.2	688.84	680.36	–	–	–	0.532	0.473	0.424
[1], x2 = 0.1	698.76	690.33	681.76	–	–	–	0.535	0.476	0.426
[1], x2 = 0.15	700.55	692.11	683.52	–	–	–	0.542	0.48	0.429
[1], x2 = 0.2	702.53	694.07	685.43	–	–	–	0.551	0.487	0.434
[1], x2 = 0.25	704.71	696.21	687.56	–	–	–	0.564	0.497	0.441
[1], x2 = 0.3	707.1	698.57	689.88	–	–	–	0.58	0.51	0.451
[1], x2 = 0.35	709.71	701.17	692.45	–	–	–	0.601	0.526	0.462
[1], x2 = 0.4	712.6	704.03	695.3	–	–	–	0.625	0.543	0.476
[1], x2 = 0.45	715.8	707.2	698.44	–	–	–	0.652	0.565	0.492
[1], x2 = 0.5	719.31	710.68	701.91	–	–	–	0.682	0.588	0.51
[1], x2 = 0.55	723.22	714.59	705.8	–	–	–	0.718	0.615	0.531
[1], x2 = 0.6	727.55	718.9	710.11	–	–	–	0.755	0.645	0.554
[1], x2 = 0.65	732.37	723.73	714.93	–	–	–	0.797	0.677	0.58
[1], x2 = 0.7	737.81	729.14	720.34	–	–	–	0.843	0.715	0.609
[1], x2 = 0.75	743.99	735.34	726.54	–	–	–	0.894	0.755	0.642
[1], x2 = 0.8	751.11	742.37	733.58	–	–	–	0.952	0.801	0.678
[1], x2 = 0.85	759.27	750.54	741.75	–	–	–	1.018	0.854	0.72
[1], x2 = 0.9	768.81	760.17	751.44	–	–	–	1.095	0.915	0.769
[1], x2 = 0.95	780.26	771.59	762.84	–	–	–	1.19	0.991	0.828
[2], x2 = 0	–	–	–	1.39404	1.389	1.38395	–	–	–
[2], x2 = 0.0502	–	–	–	1.39319	1.3881	1.38297	–	–	–
[2], x2 = 0.1	–	–	–	1.39241	1.3873	1.38217	–	–	–
[2], x2 = 0.15	–	–	–	1.39162	1.38651	1.38138	–	–	–
[2], x2 = 0.2	–	–	–	1.39081	1.38569	1.38056	–	–	–
[2], x2 = 0.25	–	–	–	1.38996	1.38485	1.37972	–	–	–
[2], x2 = 0.3	–	–	–	1.38907	1.38397	1.37885	–	–	–
[2], x2 = 0.35	–	–	–	1.38811	1.38304	1.37794	–	–	–
[2], x2 = 0.4	–	–	–	1.38709	1.38204	1.37696	–	–	–
[2], x2 = 0.45	–	–	–	1.38597	1.38099	1.37593	–	–	–
[2], x2 = 0.5	–	–	–	1.38479	1.37984	1.3748	–	–	–
[2], x2 = 0.55	–	–	–	1.3835	1.37858	1.37358	–	–	–
[2], x2 = 0.6	–	–	–	1.38209	1.37722	1.37227	–	–	–
[2], x2 = 0.65	–	–	–	1.38055	1.37573	1.37083	–	–	–
[2], x2 = 0.7	–	–	–	1.37884	1.37408	1.36922	–	–	–
[2], x2 = 0.75	–	–	–	1.37694	1.37225	1.36745	–	–	–
[2], x2 = 0.8	–	–	–	1.37484	1.3702	1.3655	–	–	–
[2], x2 = 0.85	–	–	–	1.37249	1.36792	1.3633	–	–	–
[2], x2 = 0.9	–	–	–	1.36984	1.36536	1.36085	–	–	–
[2], x2 = 0.95	–	–	–	1.36684	1.36248	1.35812	–	–	–
